Assay results from patent publication US5792457A, “Antibody recognizing endothelial cell ligand for leukocyte CR3” (priority 1995, dated 1998).

Assays:
[1] = test system: neutrophil adherence to human umbilical vein endothelial cells (HUVEC); assay: Adherence of neutrophils to cultured (TNF alpha stimulated) endothelial cells; type: cell-based; settings: for inhibition of neutrophil adherence (in words): peptides 0.5 mM (Example 9); for maximal inhibition of neutrophil attachment: concentration series (FIG. 25B); for role of RGD in blocking neutrophil adherence (in words) / inhibition of neutrophil adherence: 20-mer peptides, 0.5 mM; for neutrophil adherence, peptide plus 9D4: peptide 5 μg/ml + 9D4 10 μg/ml; for neutrophil adherence, peptide plus 12H1: peptide 5 μg/ml + 12H1 10 μl of ascites; for neutrophil adherence, peptide plus IB4: peptide 5 μg/ml + IB4 10 μg/ml; for neutrophil adherence, single agent: peptide 5 μg/ml or antibody alone (IB4 10 μg/ml, 12H1 10 μl of ascites, 9D4 10 μg/ml); for additive reduction of neutrophil adherence, peptide together with IB4: with anti-CD18 mAb IB4 (50 μg/ml)
Protocol: FIG. 17 is a bar graph representation of the inhibition of neutrophil adherence to activated endothelial cells by FHA, Factor X- and FHA- derived peptides. The concentration of inhibiting substances was: peptides 0.5 mM, native FHA 0.3 μM. Values represent the mean±standard deviation of 4 experiments with 5 wells/peptide.
FIG. 18 is a graphical representation of the FHA, FHA- or Factor X-peptide concentration effects on the inhibition of neutrophil adherence to activated endothelial cells. FHA peptide II monomer (Square) and trimer (Diamond), Factor X peptide II (Circle) at 10^-9 μM to 0.5 mM; native FHA at 10^-6 to 3×10^2 μM (triangle). Values represent the mean of 3 experiments with 5 wells/peptide (standard deviations <15%).
FIG. 25 is a graphical representation of the inhibition of neutrophil adherence to activated endothelial cells by FHA and FHA peptides. FIG. 25A: Peptide concentrations were 0.5 mM (FHA 0.2 μM). Values represent mean±standard deviation of four experiments with 5 wells/peptide; FIG. 25B represents the mean±standard deviation of triplicate experiments with 5 wells/peptide. Native FHA (.quadrature.); FHA peptide Ca (.largecircle.).
Human umbilical vein endothelial cells (HUVEC, first passage, Clonetics, San Diego, Calif.) were subcultured at confluence into Terasaki tissue culture wells. After 24 hours, confluent monolayers were used for adherence assays. Monolayers were stimulated with 10 ng/ml TNF alpha (Boehringer Mannheim, Indianapolis, Ind.) at 37° C. for four hours. 30 μl of human neutrophils (10^6 /ml) were labeled with fluorescein by the method of Lo et al. (1991), J. ExP. Med. 173 1493-1500, and preincubated for 15 minutes at 37° C. with 20 μl of peptides (0.5 mM in HAP) or HAP (phosphate buffered saline containing 0.5 mg/ml human serum albumin, 3 mM glucose, and 0.3 U/ml aprotinin) as a control buffer. For some experiments, endothelial cells were pretreated from 10 minutes with Factor X or antibodies against Factor X receptor (EPR-1; Altieri et al. (1990), J. Immunol. 145, 246-253) 12H1 and 9D4 (obtained from Dr. D. Altieri, Scripps Research Institute, LaJolla, Calif.) and then washed. Neutrophils were allowed to adhere to the monolayer for 15 mins. at 37° C. and unbound cells were removed by submersion of the plate in PBS buffer. The number of adherent neutrophils was counted in a 40× microscope field and expressed as a percentage of adherence in control wells with neutrophils treated with HAP buffer alone. The mAb IB4 against CD18 (50 μg/ml; Merck Inc., Rahway, N.J.) served as a positive control.
The ability of FHA peptides and anti-CD18 or anti-Factor X receptor antibodies to interact cooperatively to inhibit neutrophil adherence to endothelial cells was assessed by measuring neutrophil adherence to endothelial cells in the presence of antibody as well as antibody plus peptide. […] Anti-Factor X receptor mAb 12H1 (10 μl of ascites) or 9D4 (10 μg/ml) were added to the endothelial cell monolayers 10 min before the assay. The peptides were added at 5 μg/ml. The results are shown in Table 8 where the numerical values are in % of control binding.
The procedures for determining the neutrophil adherence to cultured endothelial cells and the transendothelial migration of neutrophils were identical with those of Example 9. Control values were the same as those shown in Example 9.

[2] = test system: lactate metabolism during meningeal inflammation; assay: Rabbit model for meningitis: lactate in CSF; type: in vivo, New Zealand white rabbits; settings: 6 hours after challenge
Protocol: The rabbit model was performed according to an established protocol. Specific pathogen free, New Zealand white rabbits (2 kg; Hare Marland, Nutley, N.J.) were anesthetized with valium (2.5 mg/kg, subcutaneously, Hoffman-LaRoche, Nutley, N.J.), ketamine (35 mg/kg, intra-muscularly, Aveco, Fort Dodge, Iowa) and xylazine (5 mg/kg, intramuscularly, Miles Laboratories, Shawnee, Kans.) and a helmet of dental acrylic was affixed to the calvarium. Twenty four hours later, the rabbits were anesthetized with ethyl carbamate (1.75 g/kg; Aldrich Chemical Co., Milwaukee, Wis.) and pentobarbital (15 mg/kg; Abbott Laboratories, Abbott Park, Ill.) and placed in a stereotaxic frame. A spinal needle was introduced into the cisterna magna and 300 μl of CSF was withdrawn. The animals were challenged intracisternally with 10^8 heat killed, unencapsulated pneumococcus strain R6 introduced in 200 μl of saline (time 0). One hour later, animals were treated with peptides dissolved in 1 ml of saline by intravenous injection into the right marginal ear vein. The concentration of FHA was 0.1 μM and that of the FHA Ia, Factor X II, and scrambled FHA II peptides was 10 μM. For the acetyl-FHA II, acetyl/amide-FHA II, dimer of FHA II and trimer of FHA II peptides, the concentration was 10^-3 μM. The concentration of FHA II is given in the results section. Samples of CSF were withdrawn at hourly intervals after pneumococcal inoculation and leukocyte density was measured using a cell counter (Coulter Electronics Inc., Hialeah, Fla.). CSF samples were centrifuged at 10,000×g for 5 minutes and the supernatant was stored at -70° C. until assayed for protein concentration using the bicinchoninic acid method (ECA Kit, Pierce Chemical Co., Rockford, Ill.) and for lactate concentration (Lactate Detection Kit, Sigma, St. Louis, Mo.). Statistically significant differences between treatments were determined by a one way analysis of variance test.
Loss of barrier function of the cerebral capillary endothelium during inflammation is reflected by an influx of serum proteins into the CSF. […] To examine if the peptides were able to ameliorate these measures of cerebral injury, CSF protein and lactate concentrations were measured hourly in peptide-treated and control animals (Table 10).
Mean values for CSF lactate and protein at time 0 were 18.6±5.8 and 0.8±0.2 respectively. Ten control animals received phosphate-buffered saline. The concentration of FHA II intravenously injected one hour after challenge with pneumococci was 10 μM. Values represent mean±standarddeviation of concentrations in CSF at 6 hours after pneumococcal challenge (n≥4 for peptide treated animals; n=4 for FHA). *Statistically significant difference as compared to control at p<0.02 (Mann-Whitney test).
Again, mean values for CSF lactate and protein at time 0 were 18.6±5.8 and 0.8±0.2, respectively. Ten control animals received phosphate-buffered saline. The concentrations of FHA II intravenously injected was 10^-3 μM. Values represent mean±standard deviation of concentrations in CSF at 6 hours after pneumococcal administration (n≥4 per group).

Substance: DEETVK [scrambled FHA II, reference compound]
- inhibition of neutrophil adherence (in words) [1]: did not interfere with neutrophil binding
- Lactate in CSF ([2]; peptides 10 μM, FHA 0.1 μM): 40.7 ± 5.8 mg/100 ml

Substance: native FHA: Filamentous hemagglutinin, 220kD surface associated protein of Bordetella pertussis (List Biologicals)
- concentration at which loss of activity (≤20% inhibition) occurred [1]: 10^-3 μM
- maximal inhibition of neutrophil attachment [1]: ~ 50%
- reduction of neutrophil binding to HUVEC ([1]; native FHA 25 μg/ml = 0.3 μM): 51±8%
- inhibition of adherence of neutrophils to endothelial cells ([1]; native FHA 50 ug/ml, 0.2 uM): 51±7%
- Lactate in CSF ([2]; peptides 10 μM, FHA 0.1 μM): 25.0 ± 5.3 mg/100 ml

Substance: GYDTKQEDG [Factor X II]
- Lactate in CSF ([2]; peptides 10 μM, FHA 0.1 μM): 37.6 ± 6.9 mg/100 ml

Substance: Ac-ETKEVDG-NH2 [Acetyl/Amide-FHA II]
- inhibition of neutrophil adherence (in words) [1]: significantly enhanced the ability of peptide FHA II to block neutrophil adherence to endothelia
- Lactate in CSF ([2]; peptides 10 μM, FHA 0.1 μM): 24.3 ± 3.2 mg/100 ml

Substance: AADPHQGVLAQGDIIMDAKG [FHA Cc]
- role of RGD in blocking neutrophil adherence (in words) [1]: activity was detectable above background but was not statistically different from buffer alone

Substance: ETKEVDG [FHA II]
- neutrophil adherence, peptide plus 9D4 [1]: 45 ± 9 % of control binding
- neutrophil adherence, peptide plus 12H1 [1]: 67 ± 13 % of control binding
- neutrophil adherence, peptide plus IB4 [1]: 11 ± 6 % of control binding
- neutrophil adherence, single agent [1]: 40 ± 23 % of control binding
- additive reduction of neutrophil adherence, peptide together with IB4 [1]: > 80±10%
- Lactate in CSF ([2]; 10^-3 μM): 35.3 ± 6.7 mg/100 ml
- Lactate in CSF ([2]; peptides 10 μM, FHA 0.1 μM): 25.5 ± 4.1 mg/100 ml

Substance: RADPHQGVLAQGDIIMDAKG [FHA Cb]
- role of RGD in blocking neutrophil adherence (in words) [1]: activity was decreased by half

Substance: LGYQAK (UniProt P12255 1979-1984, looked up, fragment) [FHA Ia]
- neutrophil adherence, peptide plus 9D4 [1]: 63 ± 17 % of control binding
- neutrophil adherence, peptide plus 12H1 [1]: 64 ± 12 % of control binding
- neutrophil adherence, peptide plus IB4 [1]: 20 ± 7 % of control binding
- neutrophil adherence, single agent [1]: 63 ± 12 % of control binding
- inhibition of neutrophil adherence (in words) [1]: significantly more active than the Factor X peptide I
- additive reduction of neutrophil adherence, peptide together with IB4 [1]: > 80±10%
- Lactate in CSF ([2]; peptides 10 μM, FHA 0.1 μM): 36.0 ± 6.7 mg/100 ml

Substance: GTLLLRNDALTENGTVTISA [FHA Cd]
- inhibition of neutrophil adherence [1]: < 15%

Substance: RGDPHQGVLAQGDIIMDAKG [FHA Ca]
- inhibition of neutrophil adherence [1]: 47±7%
- maximal inhibition of neutrophil attachment [1]: ~ 50%
